Laboratory results: patent publication US12220461B2, “Polypeptide-coupled small molecule compound and antiviral application thereof” (Guangzhou Medical University, priority 2023, dated 2025)
Starred links: 1 amine or outer side, 2 acyl side, 3 side chain; linkers in the order of their positions; H or OH if unused. Non-standard residues stand in square brackets, D forms with d. Residues, ends and D or L forms follow the SMILES beside them. ξ: configuration not given here. *: point of attachment. X1 = Cc1ccc(N[*:1])cc1C(=O)[*:2]; X2 = C[C@@H](N*)c1cccc2ccccc12; X3 = S=c1nc(N*)[nH]c2nc[nH]c12; ξR = N=C(N)NCCCC(N)C(=O)O; ξL = CC(C)CC(N)C(=O)O; ξS = NC(CO)C(=O)O

Assays:
[1] = system: A549 cells, MLE-12 cells and 293T cells
[2] = target: T1, PLpro (Severe acute respiratory syndrome coronavirus 2, UniProt P0DTD1); experiment: cell-based; parameters: species or system SARS-CoV-2
T1 construct: expressed in transfected cells; host or cells: 293T cells

[3] = system: SARS-CoV-2; format: cell-based
[4] = system: 293T cells; settings: same concentration, 24 h
Method: 9.1 Plating: 293T cells in logarithmic growth phase are inoculated into a 96-well plate (100 μL/well), triplicate wells are made in each group, and the number of cells in each well is set at 5×10^3. The cells are put in a 5% CO2 incubator at 37° C. for 12 h.
The dosage concentrations are set to 100 μM, 50 μM, 25 μM, 12.5 μM, 6.25 μM and 3.125 μM, and the dosage volume is 2 μL. The control group is added with 2 μL DMSO. Then, they are put in a 5% CO2 incubator at 37° C. for culture.
9.3 After 24 hours, the cells are washed with PBS twice, and then added 100 μL of pre-mixed CCK8 solution (medium: CCK8 working solution=9:1) to each well to avoid introduction of bubbles in the operation. Culture is continued for 2 h in a 5 6% CO2 incubator at 37° C.
9.4 The absorbance D(λ) of each well at the wavelength of 450 nm is determined by the microplate reader. D(λ) values of the negative control group, the control group and the experimental group are analyzed to determine the cell activity. Cell viability reflects the cytotoxicity of the drug. The groups are as follows: • the experimental group (medium containing cells, CCK-8, the drug to be tested); • the control group (medium containing cells, CCK-8, without drug to be tested); and • the negative control group (medium without cells and the substance to be detected, with CCK-8).

`Cc1ccc(NC(=O)CNC(=O)CNC(=O)C(CCCNC(=N)N)NC(=O)C(CC(C)C)NC(=O)C(CCCNC(=N)N)NC(=O)C(N)CO)cc1C(=O)N[C@H](C)c1cccc2ccccc12` (some centres unmarked) [RG-17] (H-[ξS][ξR][ξL][ξR]GG[X1]-X2) was tested, and the “cytotoxicity (CCK8 cell viability)” value [1] was “does not affect the cell growth” and the IC50 [2] was 13.7 µM.
In the case of `Cc1ccc(N)cc1C(=O)N[C@H](C)c1cccc2ccccc12` [GRL0617, reference compound], the “cytotoxicity (CCK8 cell viability)” value [1] is reported as “great cytotoxicity”.
In the case of `CC(C)CC(NC(=O)C(CCCNC(=N)N)NC(=O)C(N)CO)C(=O)NC(CCCNC(=N)N)C(=O)NCC(=O)NCC(=O)Nc1nc(=S)c2[nH]cnc2[nH]1` (centres unmarked) [RG-6] (H-SRLRGG-X3; configuration not given here), the “IC50 for inhibition of CPE induced by SARS-CoV-2” value [3] is reported as “lower than 6-TG” and the “cytotoxicity (CCK8 cell viability)” value [4] is reported as “less cytotoxicity than 6-TG”.
